The values that follow come from article PMC5218480 (PLoS ONE, 2017).

The subject of this test is MV-4-11 cells. Nature of the test: Gene expression microarray analysis (Affymetrix PrimeView) and GSEA. Type of test: cell-based, human. Also noted: RFU PODN (11730768_x_at) / Fold change /veh PODN (11730768_x_at) / RFU LINC00158 (11744669_a_at) / Fold change /veh LINC00158 (11744669_a_at) / RFU DUSP10 (11751237_a_at) / Fold change /veh DUSP10 (11751237_a_at) / RFU ID3 (11757404_x_at) / Fold change /veh ID3 (11757404_x_at) / RFU PLEKHG5 (11737974_s_at) / Fold change /veh PLEKHG5 (11737974_s_at) / RFU LRRC4B (11730491_at) / Fold change /veh LRRC4B (11730491_at) / RFU GIMAP4 (11747438_a_at) / Fold change /veh GIMAP4 (11747438_a_at) / RFU KRT8 (11758183_x_at) / Fold change /veh KRT8 (11758183_x_at) / RFU CNN1 (11734310_a_at) / Fold change /veh CNN1 (11734310_a_at) / RFU VPS37D (11726825_at) / Fold change /veh VPS37D (11726825_at) / RFU C10orf10 (11716522_x_at) / Fold change /veh C10orf10 (11716522_x_at) / RFU KIR2DL2 /// KIR2DL4 /// KIR2DL5A /// KIR2DL5B /// KIR2DS1 /// KIR2DS2 /// KIR2DS3 /// KIR2DS4 /// KIR3DL3 /// KIR3DL3 /// KIR3DS1 (11738374_at) / Fold change /veh KIR2DL2 /// KIR2DL4 /// KIR2DL5A /// KIR2DL5B /// KIR2DS1 /// KIR2DS2 /// KIR2DS3 /// KIR2DS4 /// KIR3DL3 /// KIR3DL3 /// KIR3DS1 (11738374_at) / RFU C1QL1 (11718748_at) / Fold change /veh C1QL1 (11718748_at) / RFU TMPRSS4 (11747572_a_at) / Fold change /veh TMPRSS4 (11747572_a_at) / RFU HAMP (11756126_x_at) / Fold change /veh HAMP (11756126_x_at) / RFU RNFT2 (11725882_a_at) / Fold change /veh RNFT2 (11725882_a_at) / RFU NR4A2 (11747474_a_at) / Fold change /veh NR4A2 (11747474_a_at) / RFU ABCC12 (11746883_a_at) / Fold change /veh ABCC12 (11746883_a_at) / RFU TMEM136 (11760407_x_at) / Fold change /veh TMEM136 (11760407_x_at) / RFU CLDN22 /// WWC2 (11732394_at) / Fold change /veh CLDN22 /// WWC2 (11732394_at) / RFU HLA-DPB1 (11760878_x_at) / Fold change /veh HLA-DPB1 (11760878_x_at) / RFU SPINT1 (11716480_a_at) / Fold change /veh SPINT1 (11716480_a_at) / RFU GAP43 (11754022_s_at) / Fold change /veh GAP43 (11754022_s_at) / RFU A4GNT (11735810_at) / Fold change /veh A4GNT (11735810_at) / RFU PRB3 (11715151_x_at) / Fold change /veh PRB3 (11715151_x_at) / RFU TUBB4B (11761932_at) / Fold change /veh TUBB4B (11761932_at) / RFU CAPN14 (11732068_a_at) / Fold change /veh CAPN14 (11732068_a_at) / RFU TMCC2 (11721928_a_at) / Fold change /veh TMCC2 (11721928_a_at) / RFU IRGQ (11745062_a_at) / Fold change /veh IRGQ (11745062_a_at) / RFU FAM174B (11720279_a_at) / Fold change /veh FAM174B (11720279_a_at) / RFU TMPRSS4 (11748680_a_at) / Fold change /veh TMPRSS4 (11748680_a_at) / RFU FAM212B (11763350_a_at) / Fold change /veh FAM212B (11763350_a_at) / RFU PLEKHG5 (11743358_a_at) / Fold change /veh PLEKHG5 (11743358_a_at) / RFU ZSCAN30 (11745921_a_at) / Fold change /veh ZSCAN30 (11745921_a_at) / RFU CMKLR1 (11741424_a_at) / Fold change /veh CMKLR1 (11741424_a_at) / RFU LOC101060620 /// MAPK8IP1 (11723275_at) / Fold change /veh LOC101060620 /// MAPK8IP1 (11723275_at) / RFU SPTSSB (11747773_x_at) / Fold change /veh SPTSSB (11747773_x_at) / RFU PRSS12 (11739890_at) / Fold change /veh PRSS12 (11739890_at) / RFU BIN1 (11741810_x_at) / Fold change /veh BIN1 (11741810_x_at) / RFU WNT11 (11732464_a_at) / Fold change /veh WNT11 (11732464_a_at) / RFU C10orf10 (11716521_a_at) / Fold change /veh C10orf10 (11716521_a_at) / RFU C5orf56 (11738089_at) / Fold change /veh C5orf56 (11738089_at) / RFU CYB561 (11721691_x_at) / Fold change /veh CYB561 (11721691_x_at) / RFU ANKRD19P (11752326_a_at) / Fold change /veh ANKRD19P (11752326_a_at) / RFU OR2T12 /// OR2T33 /// OR2T8 (11738714_s_at) / Fold change /veh OR2T12 /// OR2T33 /// OR2T8 (11738714_s_at) / RFU VCAN (11748164_a_at) / Fold change /veh VCAN (11748164_a_at) / RFU JSRP1 (11732532_at) / Fold change /veh JSRP1 (11732532_at) / RFU KRTAP10-11 (11738290_x_at) / Fold change /veh KRTAP10-11 (11738290_x_at) / RFU MYO3A (11730013_a_at) / Fold change /veh MYO3A (11730013_a_at) / RFU EBF3 (11725865_a_at) / Fold change /veh EBF3 (11725865_a_at) / RFU CAMK2N1 (11719241_x_at) / Fold change /veh CAMK2N1 (11719241_x_at) / RFU C5orf56 (11738088_a_at) / Fold change /veh C5orf56 (11738088_a_at) / RFU OLFML3 (11715873_a_at) / Fold change /veh OLFML3 (11715873_a_at) / RFU LOC100653217 /// NTM (11731650_a_at) / Fold change /veh LOC100653217 /// NTM (11731650_a_at) / RFU MAPK11 (11762145_a_at) / Fold change /veh MAPK11 (11762145_a_at) / RFU FIZ1 (11724087_x_at) / Fold change /veh FIZ1 (11724087_x_at) / RFU OASL (11726364_x_at) / Fold change /veh OASL (11726364_x_at) / RFU SOX15 (11748057_x_at) / Fold change /veh SOX15 (11748057_x_at) / RFU CD79A (11719716_a_at) / Fold change /veh CD79A (11719716_a_at) / RFU HIST1H1D (11736915_at) / Fold change /veh HIST1H1D (11736915_at) / RFU CASKIN2 (11723855_a_at) / Fold change /veh CASKIN2 (11723855_a_at) / RFU LOC730098 (11760151_x_at) / Fold change /veh LOC730098 (11760151_x_at) / RFU OR4N2 (11742367_at) / Fold change /veh OR4N2 (11742367_at) / RFU PRRT2 (11749266_a_at) / Fold change /veh PRRT2 (11749266_a_at) / RFU SNX32 (11753110_a_at) / Fold change /veh SNX32 (11753110_a_at) / RFU CDHR5 (11726645_a_at) / Fold change /veh CDHR5 (11726645_a_at) / RFU RCAN1 (11760418_a_at) / Fold change /veh RCAN1 (11760418_a_at) / RFU FAM167A (11723789_a_at) / Fold change /veh FAM167A (11723789_a_at) / RFU FAM26E (11764081_at) / Fold change /veh FAM26E (11764081_at) / RFU ISYNA1 (11749810_s_at) / Fold change /veh ISYNA1 (11749810_s_at) / RFU ACY1 (11761880_at) / Fold change /veh ACY1 (11761880_at) / RFU 11764098_at / Fold change /veh 11764098_at / RFU SAMD14 (11745864_x_at) / Fold change /veh SAMD14 (11745864_x_at) / RFU NPB (11741838_a_at) / Fold change /veh NPB (11741838_a_at) / RFU TMPRSS6 (11731388_a_at) / Fold change /veh TMPRSS6 (11731388_a_at) / RFU KRTAP10-2 (11738614_at) / Fold change /veh KRTAP10-2 (11738614_at) / RFU ARHGAP8 /// PRR5-ARHGAP8 (11727945_x_at) / Fold change /veh ARHGAP8 /// PRR5-ARHGAP8 (11727945_x_at) / RFU KRTAP5-7 /// NADSYN1 (11734609_at) / Fold change /veh KRTAP5-7 /// NADSYN1 (11734609_at) / RFU RASL12 (11751679_a_at) / Fold change /veh RASL12 (11751679_a_at) / RFU CDKN2B (11736163_a_at) / Fold change /veh CDKN2B (11736163_a_at) / RFU PRF1 (11729649_at) / Fold change /veh PRF1 (11729649_at) / RFU, ZNF638 /// ZNF638-IT1 / Fold change vs veh, ZNF638 /// ZNF638-IT1 / RFU, PANK3 / Fold change vs veh, PANK3 / RFU, SH3YL1 / Fold change vs veh, SH3YL1 / RFU, ZEB2 / Fold change vs veh, ZEB2 / RFU, NRIP1 / Fold change vs veh, NRIP1 / RFU, PTTG1IP / Fold change vs veh, PTTG1IP / RFU, CAPN2 / Fold change vs veh, CAPN2 / RFU, MED14 / Fold change vs veh, MED14 / RFU, SNORA58 / Fold change vs veh, SNORA58 / RFU, C1orf63 / Fold change vs veh, C1orf63 / RFU, LRRFIP1 / Fold change vs veh, LRRFIP1 / RFU, NDUFAF7 / Fold change vs veh, NDUFAF7 / RFU, SLC12A2 / Fold change vs veh, SLC12A2 / RFU, IBTK / Fold change vs veh, IBTK / RFU, ESF1 / Fold change vs veh, ESF1 / Fold change vs veh, TMEM50B / RFU, TAOK1 / Fold change vs veh, TAOK1 / RFU, ACBD3 / Fold change vs veh, ACBD3 / RFU, TMA16 / Fold change vs veh, TMA16 / RFU, RWDD3 / Fold change vs veh, RWDD3 / RFU, BCAT1 / Fold change vs veh, BCAT1 / RFU, EDEM3 / Fold change vs veh, EDEM3 / RFU, TMEM33 / Fold change vs veh, TMEM33 / RFU, WDR75 / Fold change vs veh, WDR75 / RFU, AHCTF1 / Fold change vs veh, AHCTF1 / RFU, TFRC / Fold change vs veh, TFRC / RFU, ZDHHC17 / Fold change vs veh, ZDHHC17 / RFU, NOM1 / Fold change vs veh, NOM1 / RFU, ARL8B / Fold change vs veh, ARL8B / RFU, ZBTB11 / Fold change vs veh, ZBTB11 / RFU, TAMM41 / Fold change vs veh, TAMM41 / RFU, KIAA1704 /// LOC100996395 / Fold change vs veh, KIAA1704 /// LOC100996395 / RFU, ING1 / Fold change vs veh, ING1 / RFU, TRMT61B / Fold change vs veh, TRMT61B / RFU, FUBP3 / Fold change vs veh, FUBP3 / RFU, TP53 / Fold change vs veh, TP53 / RFU, TNKS2 / Fold change vs veh, TNKS2 / RFU, ZFP14 / Fold change vs veh, ZFP14 / RFU, ACTR2 / Fold change vs veh, ACTR2 / RFU, PPP3R1 / Fold change vs veh, PPP3R1 / RFU, PIK3R1 / Fold change vs veh, PIK3R1 / RFU, HNRNPA1 / Fold change vs veh, HNRNPA1 / RFU, RNF170 / Fold change vs veh, RNF170 / RFU, ZNF28 / Fold change vs veh, ZNF28 / RFU, RNGTT / Fold change vs veh, RNGTT / RFU, OGT / Fold change vs veh, OGT / RFU, BRD1 / Fold change vs veh, BRD1 / RFU, MARS / Fold change vs veh, MARS / RFU, ZNF655 / Fold change vs veh, ZNF655 / RFU, FAHD1 / Fold change vs veh, FAHD1 / RFU, BDP1 / Fold change vs veh, BDP1 / RFU, LRRCC1 / Fold change vs veh, LRRCC1 / RFU, ARID1A / Fold change vs veh, ARID1A / RFU, ZNF146 / Fold change vs veh, ZNF146 / RFU, ZNF330 / Fold change vs veh, ZNF330 / RFU, GPN3 / Fold change vs veh, GPN3 / RFU, C9orf123 / Fold change vs veh, C9orf123 / RFU, N4BP2L2 / Fold change vs veh, N4BP2L2 / RFU, ARFIP1 / Fold change vs veh, ARFIP1 / RFU, FAM179B / Fold change vs veh, FAM179B / RFU, BCL10 / Fold change vs veh, BCL10 / RFU, UHRF1BP1L / Fold change vs veh, UHRF1BP1L / RFU, BET1 / Fold change vs veh, BET1 / RFU, CNOT2 / Fold change vs veh, CNOT2 / RFU, ZNF268 / Fold change vs veh, ZNF268 / Fold change vs veh, ZNF507 / RFU, DGCR2 / Fold change vs veh, DGCR2 / RFU, WDSUB1 / Fold change vs veh, WDSUB1 / Fold change vs veh, HSP90B1 /// MIR3652 / RFU, ADSS / Fold change vs veh, ADSS / RFU, GK / Fold change vs veh, GK / RFU, ZNF148 / Fold change vs veh, ZNF148 / RFU, TAF9 / Fold change vs veh, TAF9 / RFU, SLC1A5 / Fold change vs veh, SLC1A5 / RFU, SLMO2 / Fold change vs veh, SLMO2 / RFU, ABCC4 / Fold change vs veh, ABCC4 / RFU, LOC101060439 /// RAP1B / Fold change vs veh, LOC101060439 /// RAP1B / RFU, RFX7 / Fold change vs veh, RFX7 / RFU, GTPBP10 / Fold change vs veh, GTPBP10 / RFU, CNEP1R1 / Fold change vs veh, CNEP1R1 / RFU, BIVM-ERCC5 /// ERCC5 / Fold change vs veh, BIVM-ERCC5 /// ERCC5 / RFU, ILF3 / Fold change vs veh, ILF3 / RFU 11762660_at / Fold change /veh 11762660_at / RFU VCAN (11757783_s_at) / Fold change /veh VCAN (11757783_s_at) / RFU DDX43 (11728927_at) / Fold change /veh DDX43 (11728927_at) / RFU KRT8 (11758188_x_at) / Fold change /veh KRT8 (11758188_x_at) / RFU NKD1 (11759106_at) / Fold change /veh NKD1 (11759106_at) / RFU SRD5A1 (11742802_a_at) / Fold change /veh SRD5A1 (11742802_a_at) / RFU TPSAB1 /// TPSB2 (11721975_s_at) / Fold change /veh TPSAB1 /// TPSB2 (11721975_s_at) / RFU GSTM3 (11746129_a_at) / Fold change /veh GSTM3 (11746129_a_at) / RFU IL23R (11737362_x_at) / Fold change /veh IL23R (11737362_x_at) / RFU TMEM51 (11727254_a_at) / Fold change /veh TMEM51 (11727254_a_at) / RFU PIWIL2 (11732686_x_at) / Fold change /veh PIWIL2 (11732686_x_at) / RFU ORM1 (11744905_x_at) / Fold change /veh ORM1 (11744905_x_at) / RFU CCDC152 (11743942_at) / Fold change /veh CCDC152 (11743942_at) / RFU ECM1 (11717891_a_at) / Fold change /veh ECM1 (11717891_a_at) / RFU IL23R (11748794_a_at) / Fold change /veh IL23R (11748794_a_at) / RFU TNFAIP8L3 (11732012_x_at) / Fold change /veh TNFAIP8L3 (11732012_x_at) / RFU MBOAT4 (11741988_at) / Fold change /veh MBOAT4 (11741988_at) / RFU 11764193_at / Fold change /veh 11764193_at / RFU TMEM53 (11763286_at) / Fold change /veh TMEM53 (11763286_at) / RFU MAGEB2 (11727129_at) / Fold change /veh MAGEB2 (11727129_at) / RFU TMEM200A (11744735_a_at) / Fold change /veh TMEM200A (11744735_a_at) / RFU CCDC152 (11751479_a_at) / Fold change /veh CCDC152 (11751479_a_at) / RFU FAM211A (11726209_a_at) / Fold change /veh FAM211A (11726209_a_at) / RFU RGS16 (11746705_a_at) / Fold change /veh RGS16 (11746705_a_at) / RFU VCAN (11755009_s_at) / Fold change /veh VCAN (11755009_s_at) / RFU RHOB (11743442_s_at) / Fold change /veh RHOB (11743442_s_at) / RFU RGS16 (11720943_a_at) / Fold change /veh RGS16 (11720943_a_at) / RFU RGS16 (11720944_at) / Fold change /veh RGS16 (11720944_at) / RFU, VPS4B / Fold change vs veh, VPS4B / RFU, CREB1 / Fold change vs veh, CREB1 / RFU, DNAJC13 / Fold change vs veh, DNAJC13 / RFU, GNAQ / Fold change vs veh, GNAQ / RFU, CDK5R1 / Fold change vs veh, CDK5R1 / RFU, ZRANB3 / Fold change vs veh, ZRANB3 / RFU, CUL4A / Fold change vs veh, CUL4A / RFU, CCNY / Fold change vs veh, CCNY / RFU, UFL1 / Fold change vs veh, UFL1 / RFU, COG3 / Fold change vs veh, COG3 / RFU, DIAPH2 / Fold change vs veh, DIAPH2 / RFU, SKA2 / Fold change vs veh, SKA2 / RFU, AFF3 / Fold change vs veh, AFF3 / RFU, LMF1 / Fold change vs veh, LMF1 / RFU, IPO11 / Fold change vs veh, IPO11 / RFU, DFFB / Fold change vs veh, DFFB / RFU, FOXP1 / Fold change vs veh, FOXP1 / RFU, CARD8 / Fold change vs veh, CARD8 / RFU, STRN3 / Fold change vs veh, STRN3 / RFU, ADK / Fold change vs veh, ADK / RFU, RASSF2 / Fold change vs veh, RASSF2 / RFU, WIPF1 / Fold change vs veh, WIPF1 / RFU, LARP1B / Fold change vs veh, LARP1B / RFU, RASA1 / Fold change vs veh, RASA1 / RFU, RB1 / Fold change vs veh, RB1 / RFU, PPFIA1 / Fold change vs veh, PPFIA1 / RFU, MAT2A / Fold change vs veh, MAT2A / RFU, CCT5 / Fold change vs veh, CCT5 / RFU, WDR92 / Fold change vs veh, WDR92 / RFU, CUX1 / Fold change vs veh, CUX1 / RFU, TTC7A / Fold change vs veh, TTC7A / RFU, TMEM135 / Fold change vs veh, TMEM135 / RFU, DEPTOR / Fold change vs veh, DEPTOR / RFU, CPM / Fold change vs veh, CPM / RFU, DNAJB6 / Fold change vs veh, DNAJB6 / RFU, CACNA2D3 / Fold change vs veh, CACNA2D3 / RFU, DTX4 / Fold change vs veh, DTX4 / RFU, TFCP2 / Fold change vs veh, TFCP2 / RFU, GMCL1 /// GMCL1P1 / Fold change vs veh, GMCL1 /// GMCL1P1 / RFU, AEBP2 / Fold change vs veh, AEBP2 / RFU, SNHG1 /// SNORD22 /// SNORD25 /// SNORD26 /// SNORD27 /// SNORD28 /// SNORD29 /// SNORD31 / Fold change vs veh, SNHG1 /// SNORD22 /// SNORD25 /// SNORD26 /// SNORD27 /// SNORD28 /// SNORD29 /// SNORD31 / Fold change (Aza/veh), C12orf56 (ProbeSet 11735607_a_at) / Fold change (ACY-1035/veh), C12orf56 (ProbeSet 11735607_a_at) / Fold change (Aza/veh), FGFR1OP (ProbeSet 11751329_s_at) / Fold change (ACY-1035/veh), FGFR1OP (ProbeSet 11751329_s_at) / Fold change (Aza/veh), VPS36 (ProbeSet 11739960_a_at) / Fold change (ACY-1035/veh), VPS36 (ProbeSet 11739960_a_at) / RFU SYPL1 (11715823_x_at) / Fold change /veh SYPL1 (11715823_x_at) / RFU IGFBP7 (11715501_s_at) / Fold change /veh IGFBP7 (11715501_s_at) / RFU REEP3 (11722064_at) / Fold change /veh REEP3 (11722064_at) / RFU IGLL1 (11728026_x_at) / Fold change /veh IGLL1 (11728026_x_at): dose or concentration left out as unconfirmed. Particulars: ProbeSet 11732433_s_at; LIST B.

For the compound `Nc1ccc(-c2cccs2)cc1NC(=O)c1ccc2c(c1)cc(C1CC1)n2CCN1CCOCC1` [ACY-1035], the “RFU, GK” value worked out at 305.66 RFU.
